Data as given in patent publication US9737583B2, “Composition for prevention or treatment of acute renal failure including herbal extract or fraction thereof as active ingredient” (KOREA INSTITUTE OF ORIENTAL MEDICINE, priority 2012, dated 2017).

What was measured:
Assay type in all cases: cell-based
p53 = experiment: Examination of p53 expression pattern (western blot); conditions: single treatment of cisplatin; FIG. 6
Experimental: Cells treated with Amomi Rotundus Fructus extract and/or cisplatin were harvested, and RIPA buffer was added thereto, followed by sonication for cell lysis. Centrifugation was performed at 15,000 rpm for 15 minutes, and the supernatant was obtained, and subjected to protein quantification by BCA assay. The protein was loaded at an amount of 20 μg/10 μl in each well, and 12% SDS-PAGE polyacrylamide gel electrophoresis was performed, and transferred to a nitrocellulose membrane. The membrane was blocked with 5% Skim milk-TBST, and then treated with primary antibody (anti-p53/dilution-1:300). p53 was detected with HRP conjugated anti-mouse IgG (dilution-1:5000) and immune reaction was visualized by ECL. The measurement results are shown as Mean±S.E.M. (standard error of mean) in FIG. 6. Data of the experimental results were analyzed using Microsoft Excel program, and post-test analysis using Bonferroni multiple comparison test was performed to investigate the differences between the groups. p<0.001 was considered statistically significant, and expressed as *; p<0.001 to compare with cisplatin.

renal cells [1] = experiment: MTT assay, cell viability of renal cells with or without cisplatin
Experimental: To measure cell viability of renal cells by the Amomi Rotundus Fructus extract and the fraction thereof, MTT assay was performed. First, renal cells were seeded at a density of 1×10^4 cells per well of 96-well plate. After 24 hours, the cells were treated with each 50 μg thereof which was prepared by dilution at three final concentrations (50, 100, 200 μg/ml). After 2 hours, cisplatin was treated at a final concentration of 25 μg/ml, and cells were cultured for 24 hours. After 24 hours, 10 μl of the assay reagent of EZ-Cytox Cell Viability assay kit was added to each well using a Micro multi Pipette, taking care to introduce no bubbles, and reaction was allowed for 4 hours under basic culture conditions. Absorbance at 450 nm was measured. p<0.005 was considered statistically significant.

renal cells [2] = experiment: Measurement of ROS generation (DCF-DA); conditions: single treatment, after 24 hours; based on 100% ROS generation of the control group; FIGS. 4a to 4e
Experimental: In order to measure antioxidant effect of the Amomi Rotundus Fructus extract and the fraction thereof in renal cells, ROS generation test was performed. First, renal cells were seeded at a density of 1×10^5 cells per well of 96-well plate. After 24 hours, the cells were pre-treated with 100 μg of the Amomi Rotundus Fructus extract. 2 hours after treatment, cisplatin was treated at a final concentration of 25 μg/ml, followed by culture for 24 hours. DCF-DA dissolved in PBS was treated in the dark according to the treatment concentration of DCF-DA and the reaction time which were determined by historical data and preliminary experiment, and reaction was allowed for 5 hours under basic culture conditions. At the time point of 0, 4, 8, 12, 16, 20, 24 hr, end-point fluorescence wavelength at Ex: 485 nm and Em: 528 nm was measured at S=50.

renal cells [3] = experiment: Measurement of GSH content; conditions: single treatment of cisplatin, culture 24 hours; FIGS. 5a to 5e
Experimental: Because GSH level is known as an index to evaluate a cell-protecting effect on drug-induced cellular injury, GSH level was measured to examine the cell-protecting effect of the Amomi Rotundus Fructus extract or the fraction thereof against cisplatin. The GSH levels were determined by monochlorobimane, and experiments for measuring GSH content were performed using the kidney tissues with reference to the conventional method of Fernandez-Checa and Kaplowitz. The number of cells, in which GSH is detectable, was determined by historical data and preliminary experiment, and 2×10^6 cells were seeded to each well of culture plate. After culture for 24 hours, the dilution fold of the final concentration of the drug determined as an active drug was considered and calculated, based on the results of MTT Assay and crystal violet Assay. […] Centrifugation was carried out at 10,000 rpm for 15 minutes, and then the supernatant was collected and used for BCA protein quantification. […] End-point fluorescence wavelength at Ex: 360 nm and Em: 460 nm was measured at S=70. Data of the experimental results were analyzed using Microsoft Excel program, and post-test analysis using Bonferroni multiple comparison test was performed to investigate the differences between the groups. p<0.001 was considered statistically significant.

Which p53 expression level (p53) does the source give for `N.N.[Cl][Pt][Cl]` [cisplatin, cis-diaminedichloroplatinum II] here?
Its p53 expression level is “remarkably increased”.

And the cell viability (renal cells [1]; pre-treatment 50, 100, 200 μg/ml, cisplatin 25 μg/ml after 2 hours, culture 24 hours, based on 100% cell viability of the control group, FIGS. 2a to 2e)?
The cell viability was “remarkably reduced”.

What about the cell activity (renal cells [1]; single treatment, based on 100% cell activity of the control group, FIGS. 3a to 3e) of the same compound?
The cell activity was ≤ 40%.

And the ROS generation (renal cells [2])?
Its ROS generation is ≥ 170%.

What about the GSH content (renal cells [3]) of the same compound?
The GSH content was “reduced”.
